Activity calls are given as the source filed them.
Key:
[1] = target: DNA dC->dU-editing enzyme APOBEC-3G (Homo sapiens, UniProt Q9HC16); assay: Dose Response confirmation of small molecule APOBEC3G DNA Deaminase Inhibitors via a fluorescence-based single-stranded DNA deaminase assay. [Related pubchem assays (depositor defined):AID493012, AID493028]; format: functional
Cytochrome P450 3A4 [2] = target: T1, Cytochrome P450 3A4 (Homo sapiens, UniProt P08684)
[3] = target: Glucose-6-phosphate 1-dehydrogenase (Homo sapiens, UniProt P11413); assay: human G6PD enzyme inhibitors, dose response, selectivity assay for P. falciparum G6PD inhibitor project, biochemical, fluorescence (AID 504792); format: functional
Large T antigen = Large T antigen (Simian virus 40, UniProt P03070); format: functional, Betapolyomavirus macacae;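 further: Confirmatory-stage PubChem screen for compounds that inhibit SV40 T antigen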
[4] = target: DNA dC->dU-editing enzyme APOBEC-3A (Homo sapiens, UniProt P31941); assay: APOBEC3A DNA deaminase inhibitors, dose response, biochemical (AID 504722); format: functional
[5] = A Cell Based Secondary Assay To Explore Cytotoxicity of Compounds that Sensitize Mycobacterium Tuberculosis to Beta-Lactam Antibiotics.; format: functional
[6] = target: FAD-linked sulfhydryl oxidase ALR (Homo sapiens, UniProt P55789); assay: inhibitors of human ALR sulfhydryl oxidase, dose response, biochemical, H2O2 detection, luminescence, cherry-pick (AID 493248)
Cytochrome P450 2C9 = Cytochrome P450 2C9 (Homo sapiens, UniProt P11712); conditions: Potency
Cytochrome P450 3A4 [7] = target: T1, Cytochrome P450 3A4; conditions: Potency
[8] = Luminescence Cell-Based Dose Response HTS to Identify Activators of Luciferase Translation or Activity in H4 […] Cells. [Related pubchem assays: 1829 (Project Summary), 1814 (Primary HTS)]; format: functional
H4 = assay: Luminescence Cell-Based Dose Response HTS to Identify Activators of 5'UTR Stem-Loop Driven Prion Protein mRNA Translation in H4 Neuroglioblastoma Cells. [Related pubchem assays: 1829 (Project Summary), 1814 (Primary HTS)]; format: functional; conditions: Homo sapiens
[9] = Counterscreen for inhibitors of Trypanosoma brucei methionyl tRNA synthetase (MetRS): Luminescence-based cell-based high throughput dose response assay to identify compounds that are cytotoxic to Jurkat human T lymphocyte cells.; format: functional
[10] = target: T2, Methionyl-tRNA synthetase, putative (Trypanosoma brucei brucei, UniProt Q38C91); format: functional, Trypanosoma brucei brucei strain 927/4 GUTat10.1
T2 sequence (Q38C91 whole entry): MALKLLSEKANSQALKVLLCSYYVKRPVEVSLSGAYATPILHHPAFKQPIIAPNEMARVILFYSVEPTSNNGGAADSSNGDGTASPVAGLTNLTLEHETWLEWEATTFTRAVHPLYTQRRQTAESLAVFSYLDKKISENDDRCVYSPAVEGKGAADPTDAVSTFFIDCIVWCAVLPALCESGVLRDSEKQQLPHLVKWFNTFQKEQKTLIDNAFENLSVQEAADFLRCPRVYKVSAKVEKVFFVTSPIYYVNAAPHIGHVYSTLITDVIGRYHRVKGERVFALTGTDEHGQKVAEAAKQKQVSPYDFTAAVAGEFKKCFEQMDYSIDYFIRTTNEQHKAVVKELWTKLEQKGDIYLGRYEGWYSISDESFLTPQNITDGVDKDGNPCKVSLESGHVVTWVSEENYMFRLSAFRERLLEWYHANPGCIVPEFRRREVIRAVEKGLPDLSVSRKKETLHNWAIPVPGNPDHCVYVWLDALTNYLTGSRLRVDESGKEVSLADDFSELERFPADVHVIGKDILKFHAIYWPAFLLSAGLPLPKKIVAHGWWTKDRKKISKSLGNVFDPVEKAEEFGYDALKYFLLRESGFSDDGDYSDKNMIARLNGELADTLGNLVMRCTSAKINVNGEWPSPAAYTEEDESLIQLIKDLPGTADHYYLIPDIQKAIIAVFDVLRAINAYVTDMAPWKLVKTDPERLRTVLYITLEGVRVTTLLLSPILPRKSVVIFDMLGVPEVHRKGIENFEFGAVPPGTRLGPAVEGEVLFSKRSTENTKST

[11] = target: Protein-tyrosine kinase 2-beta (Homo sapiens, UniProt Q14289);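 further: potency of inhibitors of PYK2 kinase phosphorylation of poly-GT substrate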
[12] = target: T2, Methionyl-tRNA synthetase, putative; format: functional, Trypanosoma brucei brucei strain 927/4 GUTat10.1; remark: listed apart in the source
[13] = Luminescence Cell-Based Dose Confirmation HTS to Identify Activators of 5'UTR Stem-Loop Driven Alpha-Synuclein mRNA Translation in H4 Neuroglioblastoma Cells. [Related pubchem assays: 1829 (Project Summary), 1814 (Primary HTS)]; format: functional
[14] = target: Dual specificity tyrosine-phosphorylation-regulated kinase 1A (Rattus norvegicus, UniProt Q63470); format: biochemical, Homo sapiens
Trypsin = Trypsin (Sus scrofa, UniProt P00761); assay: porcine trypsin inhibitors, dose response, selectivity assay for Rce1 protease inhibitor project, biochemical, quenched peptide fluorescence, cherry-pick (AID 488789)
Beta-galactosidase [15] = target: T3, Beta-galactosidase (Escherichia coli, UniProt Q8VNN2); format: functional
Beta-galactosidase [16] = target: T3, Beta-galactosidase; assay: beta-galactosidase enzyme inhibitors and activators, dose response, artefact control for CCR6 antagonist project, biochemical, E. coli enzyme, set 3 (AID 504712); format: functional
Streptococcus = assay: Group A Streptococcus viability loss, dose response, counter-screen for streptokinase expression inhibitor project, luminescence, BacTiterGlo (AID 1915); format: functional, organism-based; conditions: Streptococcus;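 further: potency for reduction of bacterial viability or growth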
[17] = test system: Streptococcus sp. 'group A'; assay: growth inhibition of control SK(-) GAS strain, dose response, counter-screen for streptokinase expression inhibitor project, luminescence, kanamycin, BacTiterGlo, confirmation (AID 1900); format: functional, organism-based; conditions: Streptococcus sp. 'group A'
[18] = target: T4, Kappa-type opioid receptor (Homo sapiens, UniProt P41145); format: functional
Streptokinase A = target: T5, Streptokinase A (Streptococcus pyogenes serotype M1, UniProt P10520); assay: S. pyogenes streptokinase expression inhibitors, potency, dose response, plasminogen activation absorbance, OD405 (AID 1914); format: functional, Streptococcus pyogenes M1 GAS;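 further: secreted streptokinase activity via plasminogen activation per viability signal from cell pellet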
T5 sequence (P10520 whole entry): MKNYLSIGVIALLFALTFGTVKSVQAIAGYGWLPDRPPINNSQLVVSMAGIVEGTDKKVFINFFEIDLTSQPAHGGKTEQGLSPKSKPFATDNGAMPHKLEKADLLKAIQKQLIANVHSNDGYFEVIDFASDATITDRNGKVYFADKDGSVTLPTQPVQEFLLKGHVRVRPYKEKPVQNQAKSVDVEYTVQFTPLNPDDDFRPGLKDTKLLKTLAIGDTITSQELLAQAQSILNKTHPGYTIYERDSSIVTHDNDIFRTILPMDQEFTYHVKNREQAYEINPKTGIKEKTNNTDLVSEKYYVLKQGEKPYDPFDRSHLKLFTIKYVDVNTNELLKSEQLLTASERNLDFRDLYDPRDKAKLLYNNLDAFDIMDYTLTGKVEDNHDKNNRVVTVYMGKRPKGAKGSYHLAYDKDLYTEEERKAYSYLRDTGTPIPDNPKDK

[19] = target: T4, Kappa-type opioid receptor; format: functional; remark: listed apart in the source
Estrogen receptor beta [20] = target: T6, Estrogen receptor beta (Homo sapiens, UniProt Q92731);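 further: recombinant ER-beta bound to coactivator SRC1 peptide in presence of estradiol agonist; inhibitors block coactivator peptide binding and lower the FRET signal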
Estrogen receptor beta [21] = target: T6, Estrogen receptor beta; assay: ERβ–SRC-3 coactivator interaction inhibitors, confirmation, orthogonal assay, biochemical, ELISA, streptavidin-HRP readout (AID 1060)
Estrogen receptor = target: T7, Estrogen receptor (Homo sapiens, UniProt P03372);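 further: potency for inhibiting coactivator peptide recruitment to the receptor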
T7 sequence (P03372 whole entry): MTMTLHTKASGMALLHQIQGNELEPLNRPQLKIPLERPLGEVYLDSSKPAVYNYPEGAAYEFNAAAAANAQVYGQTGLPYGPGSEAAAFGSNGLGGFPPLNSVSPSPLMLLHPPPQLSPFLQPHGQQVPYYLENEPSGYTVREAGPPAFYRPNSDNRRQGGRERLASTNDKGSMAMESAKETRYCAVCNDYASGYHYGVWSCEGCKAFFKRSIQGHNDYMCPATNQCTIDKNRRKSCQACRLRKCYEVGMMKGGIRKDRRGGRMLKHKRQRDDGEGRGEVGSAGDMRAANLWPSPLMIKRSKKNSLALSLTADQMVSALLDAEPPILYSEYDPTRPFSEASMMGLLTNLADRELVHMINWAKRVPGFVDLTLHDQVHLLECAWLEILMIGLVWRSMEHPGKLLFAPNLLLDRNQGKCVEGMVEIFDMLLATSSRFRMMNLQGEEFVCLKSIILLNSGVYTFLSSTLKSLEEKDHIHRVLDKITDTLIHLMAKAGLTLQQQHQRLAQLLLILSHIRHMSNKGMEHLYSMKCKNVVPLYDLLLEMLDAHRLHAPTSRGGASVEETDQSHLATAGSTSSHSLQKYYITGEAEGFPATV

[22] = Vero E6 cell cytotoxicity, dose response, cytotoxicity control for non-replicating M. tuberculosis project, secondary assay (AID 492998); format: functional, VeroE6; conditions: Vero C1008
cells = format: functional
Nonstructural protein 1 = Nonstructural protein 1 (Influenza A virus, UniProt Q194T2); format: functional, Influenza A virus (A/California/07/2009(H1N1))
[23] = THP-1 cell cytotoxicity, dose response, cytotoxicity control for non-replicating M. tuberculosis project (AID 489025); format: functional
INS1 = assay: beta cell apoptosis inhibitors, cytokine rescue, dose response, luminescence, retest (AID 449756); format: functional, cell-based; conditions: Rattus norvegicus;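 further: cell death triggered by IL-1 beta plus TNF-alpha plus IFN-gamma mixture; protective hits raise ATP signal compared with cytokine alone wells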
[24] = Luminescence Cell-Based Dose Retest to Confirm Inhibitors of Cancer Stem Cells. [Related pubchem assays (depositor defined):AID2717, AID2721]; format: functional, Homo sapiens; conditions: Homo sapiens
[25] = microbe, parasite or virus in culture; format: functional; conditions: Mycobacterium tuberculosis
[26] = target: T8, Voltage-gated N-type calcium channel alpha-1B subunit/Amyloid beta A4 precursor protein-binding family A member 1 (Homo sapiens, UniProt Q00975+Q02410); format: protein assay
SUMO-activating enzyme [27] = target: T9, SUMO-activating enzyme (Homo sapiens, UniProt Q9UBT2); assay: SUMOylation inhibitor hit validation, confirmation, SUMOylation inhibitor project, biochemical, AlphaScreen (AID 2018); format: functional
[28] = target: T8, Voltage-gated N-type calcium channel alpha-1B subunit/Amyloid beta A4 precursor protein-binding family A member 1; format: protein assay; remark: listed apart in the source
SUMO-activating enzyme [29] = target: T9, SUMO-activating enzyme; assay: inhibitors of in vitro SUMOylation cascade, primary screen, biochemical, HTRF, uHTS (AID 2006); format: protein-complex assay

DNA dC->dU-editing enzyme APOBEC-3G, sequence (Q9HC16 whole entry): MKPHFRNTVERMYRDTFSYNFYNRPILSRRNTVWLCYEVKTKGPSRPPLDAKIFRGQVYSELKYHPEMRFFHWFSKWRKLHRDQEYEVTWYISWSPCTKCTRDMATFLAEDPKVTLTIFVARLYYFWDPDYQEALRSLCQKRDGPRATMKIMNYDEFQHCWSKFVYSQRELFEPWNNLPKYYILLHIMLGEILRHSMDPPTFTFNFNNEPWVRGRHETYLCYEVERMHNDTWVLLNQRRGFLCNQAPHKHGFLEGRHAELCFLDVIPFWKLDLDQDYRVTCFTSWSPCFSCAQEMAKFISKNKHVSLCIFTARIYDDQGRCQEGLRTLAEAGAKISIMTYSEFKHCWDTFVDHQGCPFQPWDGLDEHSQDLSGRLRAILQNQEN
T3 sequence (Q8VNN2 whole entry): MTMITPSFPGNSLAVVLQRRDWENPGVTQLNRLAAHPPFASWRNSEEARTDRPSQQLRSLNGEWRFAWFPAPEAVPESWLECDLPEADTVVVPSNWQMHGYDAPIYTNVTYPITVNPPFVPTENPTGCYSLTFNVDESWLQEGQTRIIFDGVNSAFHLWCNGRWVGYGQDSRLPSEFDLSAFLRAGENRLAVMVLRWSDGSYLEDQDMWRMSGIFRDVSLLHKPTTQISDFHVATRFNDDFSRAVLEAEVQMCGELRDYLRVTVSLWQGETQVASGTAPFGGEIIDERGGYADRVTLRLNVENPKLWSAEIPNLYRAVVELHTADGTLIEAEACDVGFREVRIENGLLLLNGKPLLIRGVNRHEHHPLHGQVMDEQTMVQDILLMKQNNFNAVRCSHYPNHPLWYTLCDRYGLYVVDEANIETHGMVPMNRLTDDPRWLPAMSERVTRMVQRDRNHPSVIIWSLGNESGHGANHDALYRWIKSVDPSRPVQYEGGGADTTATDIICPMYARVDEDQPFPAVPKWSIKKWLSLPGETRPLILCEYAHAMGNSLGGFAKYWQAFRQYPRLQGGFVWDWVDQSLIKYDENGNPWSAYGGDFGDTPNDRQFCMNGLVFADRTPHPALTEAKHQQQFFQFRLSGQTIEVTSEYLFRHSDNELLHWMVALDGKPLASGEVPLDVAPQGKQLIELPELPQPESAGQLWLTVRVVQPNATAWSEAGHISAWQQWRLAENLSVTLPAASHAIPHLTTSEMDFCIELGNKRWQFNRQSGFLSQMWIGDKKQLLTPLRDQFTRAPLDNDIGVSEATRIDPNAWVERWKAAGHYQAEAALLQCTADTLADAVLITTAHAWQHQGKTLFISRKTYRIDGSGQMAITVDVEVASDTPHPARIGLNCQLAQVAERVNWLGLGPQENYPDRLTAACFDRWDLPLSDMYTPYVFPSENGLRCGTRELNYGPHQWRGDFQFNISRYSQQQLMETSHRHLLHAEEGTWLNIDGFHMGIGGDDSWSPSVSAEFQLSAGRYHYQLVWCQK
Cytochrome P450 2C9, sequence (P11712 whole entry): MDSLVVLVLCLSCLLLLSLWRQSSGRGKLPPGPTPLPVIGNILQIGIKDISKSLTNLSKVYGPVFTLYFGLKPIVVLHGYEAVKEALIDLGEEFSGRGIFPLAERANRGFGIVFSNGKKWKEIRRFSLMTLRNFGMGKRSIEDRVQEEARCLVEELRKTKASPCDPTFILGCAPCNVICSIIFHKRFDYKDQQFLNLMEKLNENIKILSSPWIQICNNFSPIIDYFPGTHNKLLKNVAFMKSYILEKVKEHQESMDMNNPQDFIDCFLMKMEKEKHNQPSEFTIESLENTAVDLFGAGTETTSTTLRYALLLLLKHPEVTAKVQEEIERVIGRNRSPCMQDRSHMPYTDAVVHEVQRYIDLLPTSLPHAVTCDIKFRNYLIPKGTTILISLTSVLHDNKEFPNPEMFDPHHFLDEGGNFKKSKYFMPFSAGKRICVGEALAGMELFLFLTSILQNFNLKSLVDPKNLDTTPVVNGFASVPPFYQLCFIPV
DNA dC->dU-editing enzyme APOBEC-3A, sequence (P31941 whole entry): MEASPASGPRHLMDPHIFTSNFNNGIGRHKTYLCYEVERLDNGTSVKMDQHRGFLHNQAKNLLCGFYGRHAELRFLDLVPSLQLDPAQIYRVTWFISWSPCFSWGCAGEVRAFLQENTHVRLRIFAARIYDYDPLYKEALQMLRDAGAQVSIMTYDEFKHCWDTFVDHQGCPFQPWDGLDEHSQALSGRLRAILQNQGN
T4 sequence (P41145 whole entry): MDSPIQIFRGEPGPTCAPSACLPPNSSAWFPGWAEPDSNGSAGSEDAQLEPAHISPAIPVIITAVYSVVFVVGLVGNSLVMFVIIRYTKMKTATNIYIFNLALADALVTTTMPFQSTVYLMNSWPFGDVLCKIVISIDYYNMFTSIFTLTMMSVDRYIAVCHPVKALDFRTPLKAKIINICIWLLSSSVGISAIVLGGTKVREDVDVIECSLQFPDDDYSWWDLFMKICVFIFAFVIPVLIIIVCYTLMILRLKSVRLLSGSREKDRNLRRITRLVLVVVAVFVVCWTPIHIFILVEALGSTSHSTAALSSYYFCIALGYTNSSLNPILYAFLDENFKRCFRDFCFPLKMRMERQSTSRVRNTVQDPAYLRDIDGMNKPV
T6 sequence (Q92731 whole entry): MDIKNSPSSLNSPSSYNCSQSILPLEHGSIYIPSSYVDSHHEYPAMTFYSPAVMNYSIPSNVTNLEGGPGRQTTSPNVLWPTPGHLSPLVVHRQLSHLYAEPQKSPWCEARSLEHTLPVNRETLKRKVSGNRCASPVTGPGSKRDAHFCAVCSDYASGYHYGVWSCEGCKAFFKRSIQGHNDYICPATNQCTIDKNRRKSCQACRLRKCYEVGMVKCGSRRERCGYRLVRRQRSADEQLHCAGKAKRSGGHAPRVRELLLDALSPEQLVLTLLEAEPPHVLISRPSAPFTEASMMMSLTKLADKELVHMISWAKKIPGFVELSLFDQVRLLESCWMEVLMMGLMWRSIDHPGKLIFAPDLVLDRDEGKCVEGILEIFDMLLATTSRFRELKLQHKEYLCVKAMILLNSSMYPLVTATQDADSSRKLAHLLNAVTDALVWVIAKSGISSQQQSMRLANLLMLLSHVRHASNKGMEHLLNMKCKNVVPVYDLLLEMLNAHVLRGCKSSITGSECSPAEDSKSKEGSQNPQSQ
Glucose-6-phosphate 1-dehydrogenase, sequence (P11413 whole entry): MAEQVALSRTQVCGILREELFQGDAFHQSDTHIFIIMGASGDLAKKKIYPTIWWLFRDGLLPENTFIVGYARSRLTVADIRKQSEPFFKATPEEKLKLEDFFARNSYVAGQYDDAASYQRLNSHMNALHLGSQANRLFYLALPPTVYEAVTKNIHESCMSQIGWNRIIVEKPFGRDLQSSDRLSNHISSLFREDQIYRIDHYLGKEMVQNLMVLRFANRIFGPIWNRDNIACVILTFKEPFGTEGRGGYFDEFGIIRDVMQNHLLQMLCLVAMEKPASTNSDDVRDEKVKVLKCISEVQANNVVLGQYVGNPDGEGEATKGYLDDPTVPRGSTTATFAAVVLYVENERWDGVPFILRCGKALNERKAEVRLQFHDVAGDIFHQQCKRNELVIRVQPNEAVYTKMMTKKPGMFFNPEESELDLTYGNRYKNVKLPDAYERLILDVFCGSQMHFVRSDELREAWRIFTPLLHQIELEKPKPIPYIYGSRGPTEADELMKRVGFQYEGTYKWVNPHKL
T9 sequence (Q9UBE0 whole entry): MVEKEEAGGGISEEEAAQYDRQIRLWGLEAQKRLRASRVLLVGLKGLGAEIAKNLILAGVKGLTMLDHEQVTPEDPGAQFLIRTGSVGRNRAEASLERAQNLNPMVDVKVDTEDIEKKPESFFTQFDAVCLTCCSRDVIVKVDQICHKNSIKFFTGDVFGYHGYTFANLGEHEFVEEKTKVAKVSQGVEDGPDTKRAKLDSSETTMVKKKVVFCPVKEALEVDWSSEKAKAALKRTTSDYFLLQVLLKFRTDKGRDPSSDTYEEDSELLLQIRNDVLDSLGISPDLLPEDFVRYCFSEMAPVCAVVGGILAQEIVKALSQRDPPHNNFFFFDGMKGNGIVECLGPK
T9 sequence (Q9UBT2 whole entry): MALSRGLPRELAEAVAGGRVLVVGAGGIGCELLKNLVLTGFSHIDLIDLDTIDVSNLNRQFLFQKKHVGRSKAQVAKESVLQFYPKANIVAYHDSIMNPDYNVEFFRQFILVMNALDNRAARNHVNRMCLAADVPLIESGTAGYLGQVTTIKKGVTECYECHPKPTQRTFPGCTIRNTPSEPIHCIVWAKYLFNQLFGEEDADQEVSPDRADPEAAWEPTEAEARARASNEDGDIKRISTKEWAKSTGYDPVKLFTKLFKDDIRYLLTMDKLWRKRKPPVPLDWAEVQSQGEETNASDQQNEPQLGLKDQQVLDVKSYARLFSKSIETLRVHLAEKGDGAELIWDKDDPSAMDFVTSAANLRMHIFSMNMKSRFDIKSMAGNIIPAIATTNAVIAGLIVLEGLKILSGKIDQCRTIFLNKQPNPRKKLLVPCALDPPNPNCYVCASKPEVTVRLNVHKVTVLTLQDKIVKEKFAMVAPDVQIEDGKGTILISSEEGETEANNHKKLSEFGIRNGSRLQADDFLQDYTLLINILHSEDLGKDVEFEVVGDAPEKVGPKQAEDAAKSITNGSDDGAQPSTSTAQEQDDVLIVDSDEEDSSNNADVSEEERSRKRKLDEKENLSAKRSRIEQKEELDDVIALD
Nonstructural protein 1, sequence (Q194T2 whole entry): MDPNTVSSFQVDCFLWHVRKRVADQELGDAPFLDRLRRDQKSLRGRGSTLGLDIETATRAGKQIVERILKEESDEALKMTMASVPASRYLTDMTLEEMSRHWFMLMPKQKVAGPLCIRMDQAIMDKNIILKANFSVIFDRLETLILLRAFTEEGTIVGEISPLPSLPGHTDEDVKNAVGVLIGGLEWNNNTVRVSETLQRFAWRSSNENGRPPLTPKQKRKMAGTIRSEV
FAD-linked sulfhydryl oxidase ALR, sequence (P55789 whole entry): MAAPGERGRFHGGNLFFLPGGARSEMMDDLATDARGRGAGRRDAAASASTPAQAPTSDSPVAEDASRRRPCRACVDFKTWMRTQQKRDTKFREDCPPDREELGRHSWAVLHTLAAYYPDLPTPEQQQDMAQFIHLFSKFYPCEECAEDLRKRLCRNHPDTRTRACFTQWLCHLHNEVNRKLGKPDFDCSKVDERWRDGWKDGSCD

Cc1ccc(NNS(=O)(=O)c2ccc(C)cc2)cc1
IC50 [1]: 37.9 µM (active) | AC50 (Cytochrome P450 3A4 [2]): 28.2 µM (inconclusive) | IC50 [3]: > 80 µM (inactive)

Cc1cc(C)nc(SSc2nc(C)cc(C)n2)n1
IC50 [1]: 5.1 µM (active) | IC50 (Large T antigen): 28.2 µM (active) | IC50 [3]: > 80 µM (inactive) | IC50 [4]: > 100 µM (inactive)

Cc1cc(SCC(=O)c2ccccc2)n2ncc(-c3ccccc3)c2n1
CC50 [5]: 25.8 µM (active)

CCC(C)C(NC(N)=O)C(=O)Nc1ccc(OCc2ccccc2)cc1 (stereo not drawn)
CC50 [5]: > 40 µM (active)

COc1cc(/C=N/n2c(S)nnc2COc2ccccc2)cc(Br)c1O
IC50 [1]: 2.19 µM (active) | AC50 [6]: 2.65 µM (active) | IC50 [4]: > 100 µM (inactive)

CCN(CC)c1ccc(C(=O)n2cnc3ccccc32)cc1
CC50 [5]: > 40 µM (active)

CC1CCC2C(=O)N3C(CCC(C)[C@H]3c3ccccc3Br)C(=O)N2C1c1ccccc1Br (stereo partly drawn)
AC50 (Cytochrome P450 2C9): 6.31 µM (inconclusive) | AC50 (Cytochrome P450 3A4 [7]): 1.26 µM (inconclusive)

c1ccc2c3c([nH]c2c1)-c1n[nH]cc1CC3
EC50 [8]: 18.7 µM (active) | EC50 (H4): > 120 µM (not active) | IC50 [9]: 83.4 µM (inactive) | IC50 [10]: 26.7 µM (inactive) | IC50 [11]: 10.5 µM (not active) | IC50 [12]: 52.1 µM (inactive) | EC50 [13]: > 120 µM (not active) | AC50 [14]: 3.79 µM (active)

CC1CCc2c(sc(NC(=O)COC(=O)c3ccccc3NCc3ccco3)c2C#N)C1 (stereo not drawn)
AC50 (Trypsin): 9.07 µM (active)

Cc1cc2nc(N3C(=O)CNC3=S)sc2cc1C
EC50 (Beta-galactosidase [15]): > 31.5 µM (inactive) | IC50 (Beta-galactosidase [16]): > 66.6 µM (inactive) | EC50 (Streptococcus): 10.6 µM (active) | EC50 [17]: 3.98 µM (active) | IC50 [18]: 8.55 µM (active) | EC50 (Streptokinase A): > 150 µM (not active) | IC50 [19]: > 32 µM

O=C(COC(=O)c1cccc(S(=O)(=O)N2CCc3ccccc3C2)c1)NCc1ccco1
IC50 (Estrogen receptor beta [20]): > 50 µM (not active) | IC50 (Estrogen receptor beta [21]): 0.0242 µM (not active) | IC50 (Estrogen receptor): 25 µM (active)

CC(C)[C@@]1(NC(=O)[C@@H]2C=C3c4cccc5[nH]cc(c45)C[C@@H]3N(C)C2)O[C@]2(O)[C@H]3CCCN3C(=O)[C@H](Cc3ccccc3)N2C1=O
AC50 (Cytochrome P450 2C9): 10 µM (inconclusive)

CCOc1ccc(C(=O)N/N=C/c2cccc3cccnc23)cc1
IC50 (Beta-galactosidase [16]): > 66.6 µM (inactive) | CC50 [22]: > 20 µM (active) | IC50 (cells): 2.75 µM (active) | IC50 (Nonstructural protein 1): 11.4 µM (active) | CC50 [23]: 11.5 µM (active)

CN(/N=C/c1cc(Br)cc(Br)c1O)c1cccc(C(F)(F)F)n1
AC50 (INS1): 10.7 µM (active) | IC50 (Beta-galactosidase [16]): > 66.6 µM (inactive) | EC50 (Streptococcus): 9.95 µM (active) | AC50 [24]: 5.94 µM (active) | EC50 [17]: 0.58 µM (active) | CC50 [25]: 17.6 µM (active) | EC50 (Streptokinase A): > 150 µM (not active)

CCc1ccc2nc(NC(=O)c3ccc4c(O)nc(CN5CCOCC5)nc4c3)sc2c1
IC50 [26]: 6.59 µM (active) | IC50 (SUMO-activating enzyme [27]): 7.19 µM (active) | IC50 (Estrogen receptor): 8.23 µM (active) | IC50 [28]: > 50 µM (inactive) | IC50 (SUMO-activating enzyme [29]): 3.54 µM (active)

C=CCC1C=CC(Oc2ccc(F)cc2C)C(CO)O1 (stereo not drawn)
AC50 (Cytochrome P450 2C9): 3.98 µM (inconclusive)
